Test results as given in US7026466B1, “Serotonin-gated anion channel” (Massachusetts Institute of Technology, priority 1999, dated 2006).
Where two headings read alike, the source gives them in different places.

Columns and labels:
[1] = target: MOD-1 channel (Caenorhabditis elegans, UniProt Q9GQ00); assay: Voltage clamp of MOD-1 heterologously expressed in Xenopus oocytes or HEK cells; assay type: cell-based, C. elegans
[2] = target: T1, 5-HT3a channel (Homo sapiens, UniProt P46098)
T1 sequence (P46098 24-478): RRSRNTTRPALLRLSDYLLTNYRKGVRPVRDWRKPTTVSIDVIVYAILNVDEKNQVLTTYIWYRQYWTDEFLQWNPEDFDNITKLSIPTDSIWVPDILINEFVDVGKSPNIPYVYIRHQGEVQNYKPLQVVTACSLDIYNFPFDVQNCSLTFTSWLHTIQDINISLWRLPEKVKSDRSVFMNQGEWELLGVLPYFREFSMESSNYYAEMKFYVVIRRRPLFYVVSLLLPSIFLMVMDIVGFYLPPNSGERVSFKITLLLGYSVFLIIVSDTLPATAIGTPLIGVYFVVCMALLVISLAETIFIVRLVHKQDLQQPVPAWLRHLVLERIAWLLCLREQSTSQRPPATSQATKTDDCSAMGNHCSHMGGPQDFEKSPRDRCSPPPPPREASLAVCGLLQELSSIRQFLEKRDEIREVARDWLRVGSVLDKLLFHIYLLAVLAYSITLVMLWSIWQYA

[3] = test system: C. elegans; assay: Enhanced slowing response (locomotion) of food-deprived C. elegans on a bacterial lawn; assay type: in vivo
[4] = test system: MOD-1-like serotonin-activated current; assay: Voltage clamp of Xenopus oocytes injected with rat brain RNA (MOD-1-like response); assay type: cell-based; details: −70 mV, BAPTA-AM 200 μM
Description: A method to identify a mammalian serotonin-gated chloride channel was carried out essentially as described above. Oocytes were injected with rat cortex RNA. […] The oocytes were then screened under a voltage clamp, in a buffer containing 96 mM NaCl, 2 mM KCl, 0.3 mM CaCl2, 1 mM MgCl2, and 5 mM HEPES (pH 7.5), and with 100 mM Tris added.
In additional studies, oocytes were injected with poly(A)+ RNA from rat cortex, striatum, or thalamus, as described above. The oocytes were bathed in 200 μM BAPTA-AM for 2 hours, and were then screened under a voltage clamp, in a bath solution containing 2 mM Co^2+ to block 5-HT3a responses. […] FIG. 12 is a representative time trace of a MOD-1-like response from an oocytes injected with rat cortex RNA. These MOD-1-like currents were not detected in oocytes injected with rat RNA from spinal cord, heart, lung, or testes.

[5] = target: T1, 5-HT3a channel; details: read-out: IC 50, competitive antagonist of the 5-HT3a channel; cited from earlier work
[6] = pretreatment of wild-type C. elegans, food-deprived

Sequence of MOD-1 channel (Q9GQ00 whole entry, looked up): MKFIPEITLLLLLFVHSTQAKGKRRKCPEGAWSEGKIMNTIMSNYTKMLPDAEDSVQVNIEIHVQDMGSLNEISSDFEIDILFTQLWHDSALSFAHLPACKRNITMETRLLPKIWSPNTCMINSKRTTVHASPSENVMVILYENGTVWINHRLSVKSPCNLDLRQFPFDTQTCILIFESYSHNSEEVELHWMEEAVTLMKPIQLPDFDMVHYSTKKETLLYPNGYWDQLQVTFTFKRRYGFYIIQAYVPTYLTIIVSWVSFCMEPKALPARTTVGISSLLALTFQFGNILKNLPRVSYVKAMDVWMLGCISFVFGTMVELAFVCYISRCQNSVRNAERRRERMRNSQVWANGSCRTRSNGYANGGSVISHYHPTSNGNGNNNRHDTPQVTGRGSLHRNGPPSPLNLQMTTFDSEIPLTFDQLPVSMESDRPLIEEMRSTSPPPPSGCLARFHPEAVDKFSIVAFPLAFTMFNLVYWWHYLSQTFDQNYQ

CC(=O)OCOC(=O)CN(CC(=O)OCOC(C)=O)c1ccccc1OCCOc1ccccc1N(CC(=O)OCOC(C)=O)CC(=O)OCOC(C)=O [BAPTA-AM]
effect on the function of MOD-1 ([1]; approximately 200 μM in the bath): does not affect the function of MOD-1

NCCCC(=O)O [GABA]
response from the MOD-1 channel ([1]; application of 1 mM agonist): little or no response

NC(CO)(CO)CO [Tris]
block of the 5-HT3 cation channel ([2]; 100 mM added to buffer): completely blocks

NCC(=O)O [glycine]
response from the MOD-1 channel [1]: little or no response

CSc1ccc2c(c1)C(N1CCN(C)CC1)Cc1ccccc1S2 (centres unmarked) [methiothepin]
Ki ([1]; MOD-1 in oocytes, read-out: approximate Ki, inhibition of the MOD-1 channel): ~32 µM | effect on enhanced slowing response ([3]; pre-treatment of mod-1 mutants): did not further affect the defective enhanced slowing response | effect on enhanced slowing response [3, 6]: prevents food-deprived animals from exhibiting the wild-type enhanced slowing response

CN1CCN2c3ccccc3Cc3ccccc3C2C1 (centres unmarked) [mianserin]
effect on enhanced slowing response ([3]; pre-treatment of mod-1 mutants): did not further affect the defective enhanced slowing response | effect on enhanced slowing response [3, 6]: prevents food-deprived animals from exhibiting the wild-type enhanced slowing response

NCCc1c[nH]c2ccc(O)cc12 [serotonin]
current elicited ([1]; 100 nM, holding potential −70 mV): large inward currents | concentration of agonist at which serotonin-gated currents are detectable ([1]; MOD-1 receptors, HEK cell and Xenopus oocyte expression systems): 10 to 50 nM | oocytes with inward currents ([4]; rat cortex RNA, 1 μM serotonin for 1 minute, 100 mM Tris): about 10% | oocytes with inward currents ([4]; rat cortex, striatum or thalamus poly(A)+ RNA, 1 μM serotonin, 2 mM Co2+): approximately 33% | response of 5-HT3a channels ([2]; 1 μM serotonin): no response is detectable | response of 5-HT3a channels ([2]; 10 μM serotonin): robust current | concentration of agonist at which serotonin-gated currents are detectable ([2]; 5-HT3 receptors, HEK cell and Xenopus oocyte expression systems): > 10 µM

σ-conotoxin GVIIIA
IC50 [5]: ~0.05 µM
